Like-named read-outs stand apart in the source and are kept apart here. Peptide text beside a SMILES is read from it. * marks the point of attachment. X1 = COC(=O)C[C@H](N*)C(=O)COc1c(F)cccc1F; Quinaldoyl = O=C(c1ccc2ccccc2n1)*
How the values were obtained:
[1] = system: global cerebral ischemia (4VO); conditions: icv, 72 h post-ischemia
Description: Global cerebral ischemia was induced by four-vessel occlusion (4VO) according a Pulsinelli's derived method (Pulsinelli et al., 1982; Pulsinelli and Buchman, 1988) in young-adult rats (males Wistar aged of 10-12 weeks, 320 g+/−10 g; Janvier). The first day, head of anesthetised rats was positionned in stereotaxic ear bars and tilted down at approximatively 30° to the horizontal. After a midline incision at the level of cervical spine, both vertebral arteries were exposed under microscope and then coagulated by electocautery needle through the alar foramina at the level of first cervical vertebra. Both common carotides were then exposed 24 h later and clamped for 20-30 min (rats fell in the coma when electrocautherisation of both vertebral arteries have been well performed). Carotid arteries were then declamped to allow blood flow reperfusion. […] Rats were let in their cage with waer et food ad libitum.
Rats were sacrificed and brain fixed by trans-cardiac perfusion with paraformaldehyde. Frontal brain slices (25 μm) were strained by Cresyl-Violet or co-stained by Hoechst 33342 and Fluorojade B to assess cell death in the hippocampus and in the cortex. […] Fluoro JadeB (green fluorescence) intake is possible only in cells which have permeable plasma membrane, thus more caracteristic of dying cells. Hoechst 33342 (blue fluorescence) label nuclei all all cells and allows to appreciate nuclear morphology changes during cell death.
Cells were counted at the level of canula, as well as 650 μm and 780 μm after the cannula (antero-posterior axis) in the left brain hemisphere. Cells are counted in three successives slices at such levels in the hippocampus (CA1, CA3, girus dentus) and cortex. […] Both Fluoro Jade B and Hoechst stained slices were observed under a Leica DMIRB inverted fluorescence microscope equiped with ×40 objective and LEICA IM1000/Qfluorobase software (BP 340-80 excitation filter combined with LP 425 emission filter for Hoechst; BP 480/40 excitation filter combined with BP 515-560 emission filter for Fluoro Jade B).

[2] = system: 32 others related-proteases or enzymes involved in signal transduction and neuronal metabolism, nitric oxide pathway or prostanglandin metabolism; conditions: 1 μM, n=2
[3] = system: non-ischemic rats; conditions: rat, in vivo
Description: The selective loss of vulnerable cells and Qco-VDVAD-dfp(SEQ ID NO:1)'s effects (intracerebroventricular (ICV) administrated) have been evaluated at 72 h. Rats were sacrificed and brain fixed by trans-cardiac perfusion with paraformaldehyde. Frontal brain slices (25 μm) were strained by Cresyl-Violet or co-stained by Hoechst 33342 and Fluorojade B to assess cell death in the hippocampus and in the cortex. Cresyl-Violet is a pink-red dye that labels cytoplamic body Nissl (endoplasmic reticulum structures) and nuclei in living cells thus resulting in pale or absence of staining in dying cells. Fluoro JadeB (green fluorescence) intake is possible only in cells which have permeable plasma membrane, thus more caracteristic of dying cells. Hoechst 33342 (blue fluorescence) label nuclei all all cells and allows to appreciate nuclear morphology changes during cell death.
Cells were counted at the level of canula, as well as 650 μm and 780 μm after the cannula (antero-posterior axis) in the left brain hemisphere. Cells are counted in three successives slices at such levels in the hippocampus (CA1, CA3, girus dentus) and cortex. Cresyl-Violet stained slices were observed under white light (Nikon Eclipse E 800M microscope equipped with ×40 et ×20 objectives and LEICA IM50 software). […]

[4] = system: global cerebral ischemia (4VO); conditions: 4VO ischemic treated rats versus untreated rats
Description: Corporal temperature was measured during churgical procedure at day 1 (from anesthesia to stepl (vertebral electrocauterisation and cannula putting up) and step 2 (coratid isolation) of chirurgical procedure during. Corporal temperature was also measured 0, 10, 20 minutes after the beginning of ischemia, at day 2. Temperature was measured 24, 48, 72 H post-ischemia and before final anesthesia for perfusion at day 5. Behavioural studies (feeding, spontaneous activity and reactivity) were performed and evaluated by scoring.
Feeding: observation of stomacal contains at day 5
If refeeding=1; If no refeeding=0
Vivacity=1; More or less vivacious=0.5; No or poor vivacity=0.
Reactivity: animal are sensitive and reactive to noise and move to the origin of the noise.
If curious=1; If relatively curious=0.5; If not very curious=0.

[5] = after freeze/thawing of aqueous solution
Description: Stability was followed throughout 7 days at RT or after freeze/thawing of aqueous solution comprising various 10-100% of excipients by using HPLC (Varian ProStar 410 equipped of Nucleosile C18 (8 μm, 3.9×150 mm) with detection at 214 nm).

[6] = system: primary cortical neurons
Description: Primary cortical neurons were cultured from E14 SWISS mice embryos (Janvier). Mice were sacrificed by cervical dislocation and embryos were removed by caesarean. Cerebral cortices were extracted and tissues mechanically triturated 15 times in L15 medium (Gibco BRL) by using 1000 μl tips (Eppendorf), then debris were removed, and the cell suspension was centrifuged at 850 rpm for 10 min. […]
5.1.3 Apoptosis assays. Analysis was performed on previously stained adherent neurons by fluorescence microscopy (FM) (DM IRB inverted fluorescence microscope, Leica, Rueil-malmaison, France) equipped with a 100 W mercury short arc lamp and a X 40 N PLAN L objective or a water immersion X 100 N PLAN objective. Usually, quantitative studies were performed by both FM on approximately 200-600 cells/field by scoring 5-10 random-selected fields per experiment and flow cytometry (FC) for higher sample throughput. […] Activated caspase-2 was detected using specific FAM-conjugated peptides (called FLICA: CaspaTag™ fluorescein Caspase Activity Kits, Q-Biogen, Illkirch, France; ApoFluor™ Caspase Detection Kits, MP BioMedicals): FAM-VDVAD (SEQ ID NO:9)-fmk. Viability loss was assessed by 7-AAD (Sigma) incorporation.

[7] = biological target: caspase-2 (Rattus norvegicus, UniProt P55215); conditions: 5 mg/kg i.p., sacrificed at 24 hrs, brain homogenates
Chain of caspase-2 (P55215 whole entry): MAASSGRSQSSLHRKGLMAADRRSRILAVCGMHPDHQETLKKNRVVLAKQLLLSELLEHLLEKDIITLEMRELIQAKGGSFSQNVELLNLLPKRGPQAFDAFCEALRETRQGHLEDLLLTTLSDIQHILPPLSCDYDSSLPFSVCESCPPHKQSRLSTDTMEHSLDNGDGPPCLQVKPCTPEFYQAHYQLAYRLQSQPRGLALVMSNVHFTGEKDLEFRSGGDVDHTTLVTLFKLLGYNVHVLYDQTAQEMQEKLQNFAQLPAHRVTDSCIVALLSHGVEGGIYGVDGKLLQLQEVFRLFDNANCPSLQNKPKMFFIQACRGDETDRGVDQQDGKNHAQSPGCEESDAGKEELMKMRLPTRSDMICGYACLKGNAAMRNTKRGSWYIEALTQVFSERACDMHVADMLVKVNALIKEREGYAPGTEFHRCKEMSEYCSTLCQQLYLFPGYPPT
Description: Brain hemispheres were lysed in 10 mM Hepes, 5 mM MgCl2, 42 mM KCl, 1 mM DTT, 0.5% CHAPS supplemented by complete protease inhibitors cocktail (Roche, Meylan, France) by using a manual potter on ice. Homogenates were centrifuged at 10000 g/4° C. for 10 min before keeping surnageant. Protein concentration was determined using BCA test. Proteins (50 μg) were separated on 12.5% polyacrylamide gels and transferred to PVDF membranes (Amersham). […] The monoclonal anti-mouse caspase-2 antibody (52 kDa; 11B4, Alexis Biochemicals) was used at a 1:1000 dilution; actin (42 kDa; Sigma; antibody diluted 1:5000) is used as an equal loading control.
Caspase-2 activity (100 μg protein brain sample) was assessed in 100 μl assay buffer (50 mM HEPES, pH 7.4, 100 mM NaCl, 0.1% CHAPS, 10 mM DTT, 1 mM EDTA, 10% glycerol). The cleavage of 50 μM VDVAD(SEQ ID NO:9)-AMC by recombinant caspase-2 was measured after 2 h at 37° C. on a fluorescence microplate reader by monitoring the fluorescence emission at 510 nm upon excitation at 405 nm.
Animals were sacrified at 24 hrs. Brain homogenates were subjected to caspase-2 activity assay and western blot analysis. IL: ipsilateral injured hemisphere, CL: contralateral unlesionned hemisphere.

[8] = system: neonatal ischemic brain injury

In the case of `COC(=O)C[C@H](NC(=O)[C@H](C)NC(=O)[C@@H](NC(=O)[C@H](CC(=O)OC)NC(=O)[C@@H](NC(=O)c1ccc2ccccc2n1)C(C)C)C(C)C)C(=O)COc1c(F)cccc1F` [Qco-VDVAD-dfp, 2-Quinolinylcarbonyl-L-Valinyl-L-Aspartyl (methyl ester)-L-Valinyl-L-Alanyl-L-Aspartyl (methyl ester) 2,6-difluorophenyl ester] (Quinaldoyl-VD(OMe)VA-X1), the “Cresyl-violet staining intensity in CA1” value [1] is reported as “partially restored”, the “abnormal nuclei in CA1 (Hoechst)” value ([1]; versus ischemic rats) is reported as “less abnormal nuclei” and the “cells incorporating Fluorojade B in CA1” value ([1]; ischemic rats 50-60%) is reported as 10-20%. For the same compound, the “cross reactivity against 32 other related proteases or enzymes” value [2] was “no cross reactivity”, the “cell death in hippocampus or cortex of non-ischemic rats” value [3] was under 10% and the topical toxicity [3] was “not topically tokic”. For the same compound, the “general behaviour scoring (feeding, spontaneous activity, reactivity)” value [4] was “better scoring”, the “degradation after freeze/thawing (HPLC)” value [5] was “No degradation” and the “caspase-2 activity in serum-deprived cortical neurons” value ([6]; 24 h serum deprivation) was “prevents caspase-2 activity”. For the same compound, the cell permeance ([6]; inferred from prevention of caspase-2 activity in cortical neuron cultures) was “cell-permeant”, the “caspase-2 activity in brain of ischemic rat pups” value [7] was “inhibited caspase-2 activity” and the “caspase-2 processing in brain of ischemic rat pups (western blot)” value [7] was “inhibited caspase-2 activity as well as caspase-2 processing”. The “infarct volume (%), mean” value ([8]; 0.1 mg/kg i.p. 1 h after MCAO, 48 hrs, control 22.64±1.6%) was 9.95±2.8%, the “reduction in infarct volume” value ([8]; 0.1 mg/kg i.p. single dose 1 h after MCAO / ischemic onset, 48 hrs, n=19) was 44% and the “infarct volume of the four animals with intermediate protection” value ([8]; 5 mg/kg i.p. before ischemic onset, 4 of 12 animals) was 16.5±1.32%. For the same compound, the “infarct volume, median of the eight animals with complete protection or very marked smaller infarct” value ([8]; 5 mg/kg i.p. before ischemic onset, 8 of 12 animals) was 0.5%, the “infarct volume (% damage of ipsilateral hemisphere), mean” value ([8]; 5 mg/kg i.p. before ischemic onset, 48 hrs, control 22.1±1.4%) was 5.7±2.3% and the “infarct volume, median” value ([8]; 5 mg/kg i.p. before ischemic onset, all 12 animals, control median=21) was 0.5. The “reduction in infarct volume” value ([8]; 5 mg/kg i.p. single dose 5-15 min before ischemic onset, 48 hrs, n=12) was 74% and the “terminal transferase dUTP nick end labeling (TUNEL)” value ([8]; ipsilateral cortex of treated animals) was “significantly decreased”.

Reference: US8173600B2, “Caspase-2 inhibitors and their biological applications” (Chiesi Farmaceutici S.p.A., priority 2004, dated 2012)
